Patent US10172355B2, “Safened herbicidal compositions including 4-amino-3-chloro-5-fluoro-6-(4-chloro-2-fluoro-3-methoxyphenyl)pyridine-2-carboxylic acid or a derivative thereof for use in rice” (Dow AgroSciences LLC, priority 2012, dated 2019)

Tests used:
ORYSA=Orysa sativa, Rice = test: In-water applied herbicides and safeners in transplanted paddy rice, visual injury; assay type: in vivo; details: for Mean Visual Injury (%) - 21 DAA ORYSA - ‘M202’ / Mean Visual Injury (%) - 21 DAA ORYSA - ‘Wells’: in-water applied
Procedure: (§1) Weed seeds or nutlets of the desired test plant species were planted in puddled soil (mud) prepared by mixing a shredded, non-sterilized mineral soil (50.5 percent silt, 25.5 percent clay, and 24 percent sand, with a pH of about 7.6 and an organic matter content of about 2.9 percent) and water at a 1:1 volumetric ratio. The prepared mud was dispensed in 365 mL aliquots into 16-ounce (oz.) non-perforated plastic pots with a surface area of 86.59 square centimeters (cm^2) leaving a headspace of 3 centimeters (cm) in each pot. Rice seeds were planted in Sun Gro MetroMix® 306 planting mixture, which typically has a pH of 6.0 to 6.8 and an organic matter content of about 30 percent, in plastic plug trays. Seedlings at the second or third leaf stage of growth were transplanted into 860 mL of mud contained in 32-oz. non-perforated plastic pots with a surface area of 86.59 cm^2 4 days prior to herbicide application. The paddy was created by filling the headspace of the pots with 2.5 to 3 cm of water. When required to ensure good germination and healthy plants, a fungicide treatment and/or other chemical or physical treatment was applied. The plants were grown for 4-22 days in a greenhouse with an approximate 14 h photoperiod which was maintained at about 29′C during the day and about 26° C. during the night. Nutrients were added as Osmocote® (17:6:10, N:P:K+minor nutrients) at 2 g per 16-oz. pot and 4 g per 32-oz. pot. Water was added on a regular basis to maintain the paddy flood, and supplemental lighting was provided with overhead metal halide 1000-Watt lamps as necessary. The plants were employed for testing when they reached the second or third true leaf stage.
(§2) Treatments consisted of the acid or esters of 4-amino-3-chloro-5-fluoro-6-(4-chloro-2-fluoro-3-methoxy-phenyl)pyridine-2-carboxylic acid (compound A) and various safeners alone and in combination. Forms of compound A were applied on an acid equivalent basis. Safener components were applied on an active ingredient or acid equivalent basis depending on the compound.
(§3) Treatment requirements for each compound or herbicidal component were calculated based upon the rates being tested, the concentration of active ingredient or acid equivalent in the formulation, an application volume of 2 mL per component per pot, and an application area of 86.59 cm^2 per pot.
(§4) For formulated compounds, a measured amount was placed in an individual 100 or 200 mL glass vial and was dissolved in a volume of 1.25% (v/v) Agri-Dex® crop oil concentrate to obtain application solutions.
(§5) For technical grade compounds, a weighed amount can be placed in an individual 100 to 200 mL glass vial and dissolved in a volume of acetone to obtain concentrated stock solutions. […] The concentrated stock solutions obtained can be diluted with an equivalent volume of an aqueous mixture containing 2.5% (v/v) crop oil concentrate so that the final application solutions contain 1.25% (v/v) crop oil concentrate.
(§6) Applications were made by injecting with a pipetter appropriate amounts of the application solutions, individually and sequentially, into the aqueous layer of the paddy. Control plants were treated in the same manner with the solvent blank. Applications were made so that all treated plant material received the same concentrations of acetone and crop oil concentrate.
(§7) The treated plants and control plants were placed in a greenhouse as described above and water was added as needed to maintain a paddy flood. After approximately 3 weeks the condition of the test plants as compared with that of the untreated plants was determined visually and scored on a scale of 0 to 100 percent where 0 corresponds to no injury or growth inhibition and 100 corresponds to complete kill.
Colby's equation was used to determine the herbicidal effects expected from the mixtures (Colby, S. R. 1967. Calculation of the synergistic and antagonistic response of herbicide combinations. Weeds 15:20-22.). […]

[1] = test system: ECHCG=Echinochloa crus-galli; test: In-water applied herbicides in paddy, visual injury of weed; assay type: in vivo
Procedure: as §1, §2, §3, §4, §5, §6, §7
Some of the safener-herbicide combinations tested, application rates and ratios employed, plant species tested, and results are given in Tables 16-17. […]

| Structure (SMILES) | Mean Visual Injury (%) - 21 DAA ORYSA - ‘M202’ (ORYSA=Orysa sativa, Rice; 8.75 g ae/ha) [%] | Mean Visual Injury (%) - 21 DAA ORYSA - ‘Wells’ (ORYSA=Orysa sativa, Rice; 8.75 g ae/ha) [%] | Mean Visual Injury (%) - 21 DAA ORYSA - ‘M202’ (ORYSA=Orysa sativa, Rice; 17.5 g ae/ha) [%] | Mean Visual Injury (%) - 21 DAA ORYSA - ‘Wells’ (ORYSA=Orysa sativa, Rice; 17.5 g ae/ha) [%] | Mean Visual Injury (%) - 21 DAA ORYSA - ‘M202’ (ORYSA=Orysa sativa, Rice; 35 g ae/ha) [%] | Mean Visual Injury (%) - 21 DAA ORYSA - ‘Wells’ (ORYSA=Orysa sativa, Rice; 35 g ae/ha) [%] | Mean Visual Injury (%) - 21 DAA ORYSA - ‘M202’ (ORYSA=Orysa sativa, Rice; 70 g ae/ha) [%] | Mean Visual Injury (%) - 21 DAA ORYSA - ‘Wells’ (ORYSA=Orysa sativa, Rice; 70 g ae/ha) [%] | Mean Visual Injury (%) - 21 DAA ORYSA - ‘M202’ (ORYSA=Orysa sativa, Rice; 140 g ae/ha) [%] | Mean Visual Injury (%) - 21 DAA ORYSA - ‘Wells’ (ORYSA=Orysa sativa, Rice; 140 g ae/ha) [%] | Mean Visual Injury (%) - 21 DAA ECHCG ([1]; 8.75 g ae/ha) [%] | Mean Visual Injury (%) - 21 DAA ECHCG ([1]; 17.5 g ae/ha) [%] | Mean Visual Injury (%) - 21 DAA ECHCG ([1]; 35 g ae/ha) [%] | Mean Visual Injury (%) - 21 DAA ECHCG ([1]; 70 g ae/ha) [%] | Mean Visual Injury (%) - 21 DAA ECHCG ([1]; 140 g ae/ha) [%] | selectivity margin (ORYSA=Orysa sativa, Rice; in-water, relative rice and barnyardgrass responses, over that of the acid) |
| --- | --- | --- | --- | --- | --- | --- | --- | --- | --- | --- | --- | --- | --- | --- | --- | --- |
| COc1c(Cl)ccc(-c2nc(C(=O)O)c(Cl)c(N)c2F)c1F [Acid, 4-amino-3-chloro-6-(4-chloro-2-fluoro-3-methoxyphenyl)-5-fluoropyridine-2-carboxylic acid] | 0 | 0 | 0 | 0 | 0 | 0 | 3 | 0 | 25 | 8 | 0 | 0 | 10 | 63 | 95 | – |
| COc1c(Cl)ccc(-c2nc(C(=O)OCc3ccccc3)c(Cl)c(N)c2F)c1F [Benzyl] | 0 | 0 | 0 | 0 | 0 | 3 | 0 | 0 | 22 | 15 | 23 | 43 | 81 | 100 | 100 | improved selectivity margin |
